According to patent US20130261177A1, “COMPOUNDS CAPABLE OF MODULATING/PRESERVING ENDOTHELIAL INTEGRITY FOR USE IN PREVENTION OR TREATMENT OF ACUTE TRAUMATIC COAGULOPATHY AND RESUSCITATED CARDIAC ARREST” (priority 2010, published 2013):

Tests used:
[1] = test system: antithrombin; assay: Plasma biomarker ELISA after Flolan infusion in healthy volunteers: antithrombin; type: in vivo, human; settings: 4 ng/kg/min intravenously for 2 h
Protocol: (§1) Eight healthy volunteers were administered Flolan® (Prostacyclin) intravenously at a dose of 4 ng/kg/min for 2 h. Blood samples were analyzed for plasma biomarkers indicative of endothelial cell (thrombomodulin, PAI-1) and glycocalyx (syndecan-1) activation and/or damage, cellular necrosis (histone-complexed DNA fragments, HMGB1) and anticoagulation (protein C, antithrombin, TFPI) at the following time points: Before the infusion (Oh), immediately after ceasing the infusion (2 h) and then 4 h, 5 h, 6 h, 8 h and 24 h after starting the infusion. The concentration of the individual biomarkers in plasma was analyzed by commercially available ELISA kits according to the manufactures recommendations. Paired t-tests with p-values <0.05 were considered significant.

[2] = test system: whole blood haemostatic competence; assay: Whole blood viscoelastical assay (Thrombelastography, TEG), kaolin activated, in healthy volunteers infused with flolan; type: in vivo, human; settings: 6 healthy volunteers, 4 ng/kg/min intravenously, after 60 and 120 min infusion
Protocol: Six healthy volunteers were administered flolan (Prostacycline) intravenously at a dose of 4 ng/kg/min for 2 h. Blood samples for whole blood viscoelastical assay (Thrombelastography [TEG]) and whole blood platelet aggregation (Multiplate) were obtained before infusion of Flolan, after 60 min infusion of Flolan and after 120 min infusion of Flolan. With regard to the TEG assay this was performed as recommended by the manufacturer and 340 μl are mixed with 20 μl CaCl 0.2 M (final concentration 11.1 mM in the cup) and kaolin at 37° C. after which the haemostatic activity is recorded as depicted in FIG. 1.

[3] = test system: PAI-1; assay: Plasma biomarker ELISA after Flolan infusion in healthy volunteers: PAI-1; type: in vivo, human; settings: 4 ng/kg/min intravenously for 2 h
Protocol: as §1

[4] = type: in vivo
Protocol: Ninety-four critically ill patients admitted to the intensive care unit (ICU) underwent haemofiltration with or without concomitant Flolan (prostacycline) treatment. None of the patients were suffering from Acute Traumatic Coagulopathy nor from sequelae to cardiac arrest. Flolan was administered in a low dose in the filters to prevent these from clotting and consequently there was only a minor spill over of Flolan to the systemic circulation. The patients were retrospectively reviewed.
However, patients in the flolan group were more severely ill as evaluated by a lower platelet count at start of hemofiltration, a higher frequency of severe thrombocytopenia, a higher frequency of DIC diagnoses, a higher maximum SOFA score and a higher SOFA score at hemofiltration initiation as compared to the patients receiving non-flolan.

[5] = test system: Protein C; assay: Plasma biomarker ELISA after Flolan infusion in healthy volunteers: Protein C; type: in vivo, human; settings: 4 ng/kg/min intravenously for 2 h, in the hours after ceasing the infusion
Protocol: as §1

[6] = test system: thrombomodulin; assay: Plasma biomarker ELISA after Flolan infusion in healthy volunteers: thrombomodulin; type: in vivo, human; settings: 4 ng/kg/min intravenously for 2 h, prolonged for several hours after ceasing the infusion
Protocol: as §1

[7] = Blood pressure and heart rate during intravenous flolan infusion in healthy volunteers; type: in vivo, human; settings: 4 ng/kg/min intravenously for 2 h, any time point
Protocol: (§2) Six healthy volunteers were administered flolan (Prostacycline) intravenously at a dose of 4 ng/kg/min for 2 h. Blood samples for whole blood viscoelastical assay (Thrombelastography [TEG]) and whole blood platelet aggregation (Multiplate) were obtained before infusion of Flolan, after 60 min infusion of Flolan and after 120 min infusion of Flolan.

[8] = test system: whole blood platelet aggregation; assay: Whole blood impedance aggregometry (Multiplate) in healthy volunteers infused with flolan; type: in vivo, human; settings: 6 healthy volunteers, 4 ng/kg/min intravenously, after 60 and 120 min infusion
Protocol: as §2
Whole blood impedance aggregometry was analyzed by the Multiple Platelet function Analyzer (MultiPlate® analyzer). Analysis employing various platelet agonists: ASPItest (activation by arachidonic acid), COLtest (activation by collagen through the collagen receptor), TRAPtest (activation by TRAP-6 stimulates the thrombin receptor on the platelet surface and ADPtest (activation by ADP stimulates platelet activation by the ADP receptors).
MultiPlate continuously records platelet aggregation. The increase of impedance by the attachment of platelets onto the Multiplate sensors is transformed to arbitrary aggregation units (AU) and plotted against time as depicted in FIG. 2.

For `CCCCC[C@H](O)/C=C/[C@@H]1[C@H]2C/C(=C/CCCC(=O)O)O[C@H]2C[C@H]1O` [Flolan, epoprostenol sodium], the “circulating level of antithrombin” value [1] was “decreased”, the “TEG values (R, Angle, MA), baseline vs. during infusion” value [2] was “No significant difference” and the “circulating level of PAI-1” value [3] was “declined”. For the same compound, the “mortality at 30 days” value ([4]; ICU patients, low dose Flolan in the haemofiltration filters, vs. 39% non-flolan, p=0.12) was 21%, the 90 day mortality ([4]; ICU patients, low dose Flolan in the haemofiltration filters, vs. 53% non-flolan, p=0.10) was 34% and the “mortality at 365 days” value ([4]; ICU patients, low dose Flolan in the haemofiltration filters, vs. 57% non-flolan, p=0.09) was 38%. The “Platelet count (difference before vs. after haemofiltration)” value ([4]; human, in vivo) was “+14”, the “haemostatic competence as evaluated by transfusion requirements” value ([4]; human, in vivo) was “does not negatively influence” and the “total transfusion requirements and specifically of FFP during hemofiltration” value ([4]; human, in vivo) was “increased total transfusion requirements”. The “circulating level of Protein C” value [5] was “decreased”, the “circulating level of thrombomodulin” value [6] was “marked decrease” and the “blood pressure, change from baseline” value [7] was “did not change”. The “heart rate, change from baseline” value [7] was “did not change” and the “Multiplate values (agonists ASPI, COL, ADP, TRAP), baseline vs. during infusion” value [8] was “no significant difference”.
